Experimental data published in patent publication US5409933A, “Quinoline derivatives and processes for preparing the same” (priority 1993, dated 1995).
Where a name gives a salt, the structure may show the parent alone. Read-outs that look alike come from different tables or passages of the source.

Legend:
Assay in all cases: In Vitro Anti-Bacterial Activity Test (MIC, agar dilution)
Format in all cases: cell-based
[1] = test system: Enterobacter cloacae 1321E; conditions: Enterobacter cloacae 1321E; Muller-Hinton agar, 37° C., 18 hours; read-out: MIC
In short: (§1)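 Muller-Hinton agar dilution method. Inoculum 10^7 C.F.U./ml; 37° C., 18 h. Endpoint: minimum inhibitory concentration by growth inspection. Ciprofloxacin control.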

Enterobacter cloacae P99 = conditions: Enterobacter cloacae, P99, 18 h
In short: (§2)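 Minimum inhibitory concentrations were determined by dilution of test compounds in Muller-Hinton agar, onto which 10^7 C.F.U./ml bacterial suspensions were inoculated and incubated at 37° C. for 18 hours.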

Escherichia coli 078 = test system: Escherichia coli 078
In short: as §1

Escherichia coli 1507E = conditions: Muller-Hinton agar, 37° C.
In short: as §1

Escherichia coli DC0 = conditions: Muller-Hinton agar, 37° C., 18 hours, read-out: MIC
In short: as §1

Escherichia coli DC2 = conditions: Escherichia coli, DC2, 18 h
In short: as §1

Escherichia coli TEM = conditions: Escherichia coli, 18 h, Muller-Hinton agar, 37° C.
In short: as §2

[2] = test system: Klebsiella aerogenes 1522E; conditions: Klebsiella aerogenes, 1522E, 18 h, Klebsiella aerogenes 1522E; Muller-Hinton agar, 37° C., 18 hours; read-out: MIC
In short: as §1

Klebsiella oxytoca 1082E = test system: Klebsiella oxytoca 1082E
In short: as §1

[3] = test system: Pseudomonas aeruginosa 1592E; conditions: Muller-Hinton agar, 37° C., 18 hours, read-out: MIC
In short: as §1

[4] = test system: Pseudomonas aeruginosa 1771M; conditions: Pseudomonas aeruginosa, 1771M, 18 h, Muller-Hinton agar, 37° C.
In short: as §1

[5] = test system: Pseudomonas aeruginosa 1771; conditions: Pseudomonas aeruginosa 1771; Muller-Hinton agar, 37° C., 18 hours; read-out: MIC
In short: as §1

[6] = test system: Pseudomonas aeruginosa 9027; conditions: Muller-Hinton agar, 37° C., 18 hours, read-out: MIC
In short: as §1

Salmonella typhimurium = conditions: Salmonella enterica; Salmonella typhimurium; Muller-Hinton agar, 37° C., 18 hours; read-out: MIC
In short: as §1

[7] = test system: Staphylococcus aureus 285; conditions: Staphylococcus aureus, 285, 18 h, Staphylococcus aureus 285; Muller-Hinton agar, 37° C., 18 hours; read-out: MIC
In short: as §1

[8] = test system: Staphylococcus aureus 503; conditions: Staphylococcus aureus 503; Muller-Hinton agar, 37° C., 18 hours; read-out: MIC
In short: as §1

[9] = test system: Staphylococcus aureus SG511; conditions: Staphylococcus aureus SG511; Muller-Hinton agar, 37° C., 18 hours; read-out: MIC
In short: as §1

[10] = test system: Streptococcus faecium MD8b; conditions: Enterococcus faecium, Muller-Hinton agar, 37° C., 18 hours, read-out: MIC
In short: as §1

[11] = test system: Streptococcus pyogenes 308A; conditions: Muller-Hinton agar, 37° C., 18 hours, read-out: MIC
In short: as §1

[12] = test system: Streptococcus pyogenes 77A
In short: as §1

[13] = Klebsiella oxytoca 1082E, Muller-Hinton agar, 37° C., 18 hours, read-out: MIC
[14] = Streptococcus pyogenes, 77A, 18 h
[15] = Streptococcus pyogenes 77A, Muller-Hinton agar, 37° C., 18 hours, read-out: MIC
[16] = Escherichia coli 078, Muller-Hinton agar, 37° C., 18 hours, read-out: MIC

Row | SMILES | MIC [1] [µg/mL] | MIC (Enterobacter cloacae P99) [µg/mL] | MIC (Escherichia coli 078; Escherichia coli, 078, 18 h) [µg/mL] | MIC (Escherichia coli 1507E; Escherichia coli, 1507E, 18 h) [µg/mL] | MIC (Escherichia coli DC0) [µg/mL] | MIC (Escherichia coli DC2) [µg/mL] | MIC (Escherichia coli TEM) [µg/mL] | MIC [2] [µg/mL] | MIC (Klebsiella oxytoca 1082E; [13]) [µg/mL] | MIC [3] [µg/mL] | MIC [4] [µg/mL] | MIC [5] [µg/mL] | MIC [6] [µg/mL] | MIC (Salmonella typhimurium) [µg/mL] | MIC [7] [µg/mL] | MIC [8] [µg/mL] | MIC [9] [µg/mL] | MIC [10] [µg/mL] | MIC [11] [µg/mL] | MIC [12, 15] [µg/mL] | other results
1 | CCOC(=O)C(C(=O)OCC)C(=O)c1cn(C2CC2)c2c(OC)c(N3CCC(NC)C3)c(F)cc2c1=O (centres unmarked) [Example 60, 1-cyclopropyl-6-fluoro-8-methoxy-7-(3-methylaminopyrrolidin-1-yl)-3-(2,2-diethoxycarbonylacetyl)-1,4-dihydro-4-oxoquinoline hydrochloride] | 0.098 | 0.098 | 0.098 | 0.195 | 0.781 | 0.098 | 0.098 | 0.195 | 0.013 | 1.56 | 0.781 | 1.56 | 1.56 | 0.098 | 0.195 | 0.098 | 0.195 | 0.781 | 1.56 |  | MIC [12, 14]: 0.781 µg/mL
2 | N#CC(C#N)C(=O)c1cn(C2CC2)c2c(Cl)c(N3CCC(N)C3)c(F)cc2c1=O (centres unmarked) [Example 45, 1-cyclopropyl-6-fluoro-8-chloro-7-(3-aminopyrrolidin-1-yl)-3-(2,2-dicyanoacetyl)-1,4-dihydro-4-oxoquinoline hydrochloride] | 0.098 | 0.195 | 0.049 | 0.195 | 1.56 | 0.781 | 0.195 | 0.391 | 0.049 | 3.12 | 0.781 | 3.12 | 6.25 | 0.098 | 1.56 | 1.56 | 0.781 | 6.25 | 25 | 25 | 
3 | CNC1CCN(c2c(F)cc3c(=O)c(C(=O)C[N+](=O)[O-])cn(C4CC4)c3c2Cl)C1 (centres unmarked) [Example 63, 1-cyclopropyl-6-fluoro-8-chloro-7-(3-methylaminopyrrolidin-1-yl)-3-(2-nitroacetyl)-1,4-dihydro-4-oxoquinoline hydrochloride] | 0.013 | 0.013 |  | 0.007 | 0.098 | 0.025 | 0.007 | 0.013 | 0.007 | 0.195 | 0.049 | 0.195 | 0.391 | 0.004 | 0.049 | 0.049 | 0.025 | 0.098 | 0.391 | 0.098 | MIC (Escherichia coli 078; [16]): < 0.002 µg/mL
4 | O=C(C[N+](=O)[O-])c1cn(C2CC2)c2c(F)c(N3CCNCC3)c(F)cc2c1=O [Example 6, 1-cyclopropyl-6,8-difluoro-7-(piperazin-1-yl)-3-(2-nitroacetyl)-1,4-dihydro-4-oxoquinoline hydrochloride] | < 0.002 | < 0.002 |  |  | 0.195 | 0.098 | < 0.002 | 0.007 | < 0.002 | 0.195 | 0.049 | 0.195 | 0.391 | < 0.002 | 0.195 | 0.391 | 0.098 | 0.781 | 3.12 |  | MIC (Escherichia coli 078; [16]): < 0.002 µg/mL; MIC (Escherichia coli 1507E; 18 hours, read-out: MIC): < 0.002 µg/mL; MIC [12, 14]: 0.781 µg/mL
5 | CC(=O)CC(=O)c1cn(C2CC2)c2c(Cl)c(N3CCC(N)C3)c(F)cc2c1=O (centres unmarked) [Example 37, 1-cyclopropyl-6-fluoro-8-chloro-7-(3-aminopyrrolidin-1-yl)-3-(2-acetoacetyl)-1,4-dihydro-4-oxoquinoline hydrochloride] | 0.195 | 0.195 | 0.391 | 0.195 | 0.781 | 0.391 | 0.098 | 0.391 | 0.195 | 3.12 | 0.781 | 1.56 | 1.56 | 0.195 | 0.781 | 0.781 | 0.781 | 3.12 | 1.56 | 3.12 | 
6 | NC1CCN(c2c(F)cc3c(=O)c(C(=O)C[N+](=O)[O-])cn(CCF)c3c2F)C1 (centres unmarked) [Example 31, 1-(2-fluoroethyl)-6,8-difluoro-7-(3-aminopyrrolidin-1-yl)-3-(2-nitroacetyl)-1,4-dihydro-4-oxoquinoline hydrochloride] | 0.049 | 0.098 | 0.391 |  | 0.195 | 0.391 | 0.195 | 0.098 |  | 0.781 | 0.391 | 0.781 | 0.781 | 0.391 | 0.391 | 0.391 | 0.781 | 0.781 | 3.12 | 1.56 | MIC (Escherichia coli 1507E; 18 hours, read-out: MIC): 0.198 µg/mL; MIC (Klebsiella oxytoca 1082E; Klebsiella oxytoca, 1082E, 18 h): 0.195 µg/mL
7 | Cc1c(F)c(N2CCNC(C)C2)cc2c1c(=O)c(C(=O)C[N+](=O)[O-])cn2C1CC1 (centres unmarked) [Example 51, 1-cyclopropyl-5-methyl-6-fluoro-7-(3-methylpiperazin-1-yl)-3-(2-nitroacetyl)-1,4-dihydro-4-oxoquinoline hydrochloride] | 0.025 | 0.025 | 0.025 | 0.049 | 0.781 | 0.195 | 0.049 | 0.195 | 0.013 | 0.391 | 0.195 | 0.781 | 0.781 | 0.025 | 0.098 | 0.098 | 0.195 | 0.391 | 0.781 | 0.391 | 
